{
  "source": "ChEMBL document CHEMBL5678816",
  "about": "“A Next-Generation TRK Kinase Inhibitor Overcomes Acquired Resistance to Prior TRK Kinase Inhibition in Patients with TRK Fusion-Positive Solid Tumors” (Cancer Discov, 2017)",
  "key": {"[1]": {"biological_target": "Cyclin-dependent kinase 1/cyclin B1 (Homo sapiens) (UniProt P06493+P14635)", "sequence (P06493 whole entry, looked up)": "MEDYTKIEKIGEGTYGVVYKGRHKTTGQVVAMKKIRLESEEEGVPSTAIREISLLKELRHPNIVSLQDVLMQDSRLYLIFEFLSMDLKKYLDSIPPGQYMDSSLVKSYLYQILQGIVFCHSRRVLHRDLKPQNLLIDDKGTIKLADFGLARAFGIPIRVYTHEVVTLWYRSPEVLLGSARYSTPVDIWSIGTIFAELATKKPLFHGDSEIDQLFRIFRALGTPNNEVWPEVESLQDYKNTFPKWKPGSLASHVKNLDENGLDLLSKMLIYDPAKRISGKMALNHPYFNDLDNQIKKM", "sequence (P14635 whole entry, looked up)": "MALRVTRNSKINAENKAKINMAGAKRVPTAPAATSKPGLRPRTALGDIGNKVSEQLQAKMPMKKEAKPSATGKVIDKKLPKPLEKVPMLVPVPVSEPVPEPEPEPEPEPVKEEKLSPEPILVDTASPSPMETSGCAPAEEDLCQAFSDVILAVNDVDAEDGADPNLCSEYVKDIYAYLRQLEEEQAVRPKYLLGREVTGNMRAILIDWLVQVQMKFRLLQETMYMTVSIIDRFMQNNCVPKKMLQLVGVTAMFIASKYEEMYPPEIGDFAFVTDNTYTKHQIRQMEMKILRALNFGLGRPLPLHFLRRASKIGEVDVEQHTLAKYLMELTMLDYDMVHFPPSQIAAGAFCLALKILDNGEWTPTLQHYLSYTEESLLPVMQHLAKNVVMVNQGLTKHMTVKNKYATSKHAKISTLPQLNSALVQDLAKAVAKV", "experiment": "Inhibition of CDK1/cyclinB (unknown origin) at 1 uM in presence of ATP relative to control; values are per cent of control"}, "[2]": {"biological_target": "Protein kinase C alpha type (Homo sapiens) (UniProt P17252)", "experiment": "Inhibition of PKCalpha (unknown origin) at 1 uM in presence of ATP relative to control; values are per cent of control"}, "[3]": {"biological_target": "Ephrin type-B receptor 3 (Homo sapiens) (UniProt P54753)", "experiment": "Inhibition of EphB3 (unknown origin) at 1 uM in presence of ATP relative to control; values are per cent of control"}, "SK-BR-3": {"test_system": "SK-BR-3", "experiment": "Inhibition of cell proliferation in human SK-BR-3 cells upto 10 umol/L incubated for 72 hrs by DAPI staining based analysis", "format": "functional", "conditions": "dose <= 10.0 µmol/L"}, "[4]": {"biological_target": "Ribosomal protein S6 kinase alpha-1 (Homo sapiens) (UniProt Q15418)", "experiment": "Inhibition of Rsk1 (unknown origin) at 1 uM in presence of ATP relative to control; values are per cent of control"}, "[5]": {"biological_target": "Interleukin-1 receptor-associated kinase 4 (Homo sapiens) (UniProt Q9NWZ3)", "experiment": "Inhibition of IRAK4 (unknown origin) at 1 uM in presence of ATP relative to control; values are per cent of control"}, "NIH3T3": {"test_system": "NIH3T3", "experiment": "In vivo inhibition of […] in nu/nu NCr mouse implanted with mouse NIH3T3 cells harboring extracellular domain deleted […] G595R mutant assessed as reduction in […] phosphorylation administered orally twice daily for 3 days and measured after 2 hrs post last dose by ELISA", "format": "functional", "conditions": "dose 10-100 mg/kg, route po, time 3.0 day"}, "[6]": {"biological_target": "Activin receptor type-1B (Homo sapiens) (UniProt P36896)", "experiment": "Inhibition of ALK4 (unknown origin) at 1 uM in presence of ATP relative to control; values are per cent of control"}, "CML-T1": {"test_system": "CML-T1", "experiment": "Inhibition of cell proliferation in human CML-T1 cells upto 10 umol/L incubated for 72 hrs by DAPI staining based analysis", "format": "functional", "conditions": "dose <= 10.0 µmol/L"}, "[7]": {"experiment": "Cmin in pediatric patient with recurrent ETV6-NTRK3-rearranged infantile fibrosarcoma at 20 mg administered twice a day as liquid formulation for 1 day and measured 12 hrs post dose by LC-MS/MS analysis", "format": "ADME", "conditions": "human, in vivo, read-out: Cmin"}, "[8]": {"biological_target": "Ribosomal protein S6 kinase alpha-4 (Homo sapiens) (UniProt O75676)", "sequence (O75676 whole entry, looked up)": "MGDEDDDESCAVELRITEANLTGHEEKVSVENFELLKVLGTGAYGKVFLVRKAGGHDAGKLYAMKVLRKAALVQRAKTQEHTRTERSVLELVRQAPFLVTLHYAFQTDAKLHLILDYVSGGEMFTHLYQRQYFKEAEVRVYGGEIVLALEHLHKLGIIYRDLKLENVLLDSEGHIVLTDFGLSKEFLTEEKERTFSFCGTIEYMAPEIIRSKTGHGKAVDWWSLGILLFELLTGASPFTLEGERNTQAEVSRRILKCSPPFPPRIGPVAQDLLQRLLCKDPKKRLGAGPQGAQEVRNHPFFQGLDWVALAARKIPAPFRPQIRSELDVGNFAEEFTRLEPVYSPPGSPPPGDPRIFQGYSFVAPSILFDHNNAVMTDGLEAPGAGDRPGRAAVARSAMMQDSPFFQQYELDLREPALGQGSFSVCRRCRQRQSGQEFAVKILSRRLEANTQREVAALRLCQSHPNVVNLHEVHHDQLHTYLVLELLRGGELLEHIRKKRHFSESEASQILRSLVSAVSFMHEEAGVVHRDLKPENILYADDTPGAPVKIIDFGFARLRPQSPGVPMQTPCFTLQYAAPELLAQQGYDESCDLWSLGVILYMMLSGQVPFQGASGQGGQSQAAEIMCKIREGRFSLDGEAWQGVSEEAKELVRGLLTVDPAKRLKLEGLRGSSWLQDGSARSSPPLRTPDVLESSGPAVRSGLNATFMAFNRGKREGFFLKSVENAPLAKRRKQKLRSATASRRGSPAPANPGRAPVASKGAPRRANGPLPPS", "experiment": "Inhibition of MSK2 (unknown origin) at 1 uM in presence of ATP relative to control; values are per cent of control"}, "[9]": {"experiment": "Oral bioavailability in dog at 10 mg/kg administered as 0.5% carboxymethylcellulose 0.02% sodium dodecyl sulfate formulation by LC-MS analysis", "format": "ADME, organism-based, Canis lupus familiaris", "conditions": "in vivo"}, "[10]": {"biological_target": "Serine/threonine-protein kinase BRSK2 (Homo sapiens) (UniProt Q8IWQ3)", "experiment": "Inhibition of BrSK2 (unknown origin) at 1 uM in presence of ATP relative to control; values are per cent of control"}, "[11]": {"biological_target": "Rhodopsin kinase GRK7 (Homo sapiens) (UniProt Q8WTQ7)", "sequence (Q8WTQ7 whole entry)": "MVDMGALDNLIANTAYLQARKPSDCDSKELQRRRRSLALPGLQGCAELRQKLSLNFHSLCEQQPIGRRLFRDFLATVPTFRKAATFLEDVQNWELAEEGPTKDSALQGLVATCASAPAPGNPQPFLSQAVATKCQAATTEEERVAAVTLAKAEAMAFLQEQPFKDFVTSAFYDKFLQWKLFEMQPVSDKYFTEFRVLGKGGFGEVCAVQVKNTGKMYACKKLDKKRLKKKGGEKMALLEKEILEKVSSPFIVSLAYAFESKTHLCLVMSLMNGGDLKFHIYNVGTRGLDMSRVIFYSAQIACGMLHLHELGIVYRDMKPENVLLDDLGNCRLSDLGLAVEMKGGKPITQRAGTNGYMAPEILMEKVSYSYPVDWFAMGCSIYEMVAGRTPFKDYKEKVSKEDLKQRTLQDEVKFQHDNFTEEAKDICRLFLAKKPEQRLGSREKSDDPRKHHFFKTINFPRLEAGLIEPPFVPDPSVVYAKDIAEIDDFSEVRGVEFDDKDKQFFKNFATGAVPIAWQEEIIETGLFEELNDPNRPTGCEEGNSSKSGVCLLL", "experiment": "Inhibition of GRK7 (unknown origin) at 1 uM in presence of ATP relative to control; values are per cent of control"}, "U138-MG": {"test_system": "U138-MG", "experiment": "Inhibition of cell proliferation in human U138-MG cells upto 10 umol/L incubated for 72 hrs by DAPI staining based analysis", "format": "functional", "conditions": "dose <= 10.0 µmol/L"}, "[12]": {"biological_target": "Myotonin-protein kinase (Homo sapiens) (UniProt Q09013)", "sequence (Q09013 whole entry)": "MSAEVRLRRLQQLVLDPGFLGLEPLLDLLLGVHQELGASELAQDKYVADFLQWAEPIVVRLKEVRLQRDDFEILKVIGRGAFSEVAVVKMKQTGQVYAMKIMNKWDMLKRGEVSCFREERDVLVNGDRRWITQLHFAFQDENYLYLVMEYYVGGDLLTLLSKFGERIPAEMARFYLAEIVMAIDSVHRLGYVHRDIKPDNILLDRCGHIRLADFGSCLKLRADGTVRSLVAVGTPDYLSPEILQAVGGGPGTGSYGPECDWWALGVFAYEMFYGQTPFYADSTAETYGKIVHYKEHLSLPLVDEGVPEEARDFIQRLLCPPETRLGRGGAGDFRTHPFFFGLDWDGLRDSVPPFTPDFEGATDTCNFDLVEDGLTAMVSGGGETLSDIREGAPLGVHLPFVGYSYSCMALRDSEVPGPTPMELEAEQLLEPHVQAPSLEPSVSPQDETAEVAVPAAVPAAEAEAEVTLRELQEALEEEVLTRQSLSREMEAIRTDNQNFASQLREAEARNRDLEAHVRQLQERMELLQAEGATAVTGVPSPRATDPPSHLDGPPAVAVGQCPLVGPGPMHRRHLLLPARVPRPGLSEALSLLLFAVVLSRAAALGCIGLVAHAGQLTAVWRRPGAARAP", "experiment": "Inhibition of DMPK (unknown origin) at 1 uM in presence of ATP relative to control; values are per cent of control"}, "[13]": {"biological_target": "Tyrosine-protein kinase receptor UFO (Homo sapiens) (UniProt P30530)", "experiment": "Inhibition of Axl (unknown origin) at 1 uM in presence of ATP relative to control; values are per cent of control"}, "[14]": {"biological_target": "Serine/threonine-protein kinase SIK1 (Homo sapiens) (UniProt P57059)", "experiment": "Inhibition of SIK (unknown origin) at 1 uM in presence of ATP relative to control; values are per cent of control"}, "Homo sapiens [15]": {"species": "Homo sapiens", "experiment": "Inhibition of MKK4_m (unknown origin) at 1 uM in presence of ATP relative to control; values are per cent of control"}, "[16]": {"biological_target": "Mitogen-activated protein kinase kinase kinase kinase 2 (Homo sapiens) (UniProt Q12851)", "experiment": "Inhibition of MAP4K2 (unknown origin) at 1 uM in presence of ATP relative to control; values are per cent of control"}, "[17]": {"biological_target": "Serine/threonine-protein kinase BRSK1 (Homo sapiens) (UniProt Q8TDC3)", "sequence (Q8TDC3 whole entry)": "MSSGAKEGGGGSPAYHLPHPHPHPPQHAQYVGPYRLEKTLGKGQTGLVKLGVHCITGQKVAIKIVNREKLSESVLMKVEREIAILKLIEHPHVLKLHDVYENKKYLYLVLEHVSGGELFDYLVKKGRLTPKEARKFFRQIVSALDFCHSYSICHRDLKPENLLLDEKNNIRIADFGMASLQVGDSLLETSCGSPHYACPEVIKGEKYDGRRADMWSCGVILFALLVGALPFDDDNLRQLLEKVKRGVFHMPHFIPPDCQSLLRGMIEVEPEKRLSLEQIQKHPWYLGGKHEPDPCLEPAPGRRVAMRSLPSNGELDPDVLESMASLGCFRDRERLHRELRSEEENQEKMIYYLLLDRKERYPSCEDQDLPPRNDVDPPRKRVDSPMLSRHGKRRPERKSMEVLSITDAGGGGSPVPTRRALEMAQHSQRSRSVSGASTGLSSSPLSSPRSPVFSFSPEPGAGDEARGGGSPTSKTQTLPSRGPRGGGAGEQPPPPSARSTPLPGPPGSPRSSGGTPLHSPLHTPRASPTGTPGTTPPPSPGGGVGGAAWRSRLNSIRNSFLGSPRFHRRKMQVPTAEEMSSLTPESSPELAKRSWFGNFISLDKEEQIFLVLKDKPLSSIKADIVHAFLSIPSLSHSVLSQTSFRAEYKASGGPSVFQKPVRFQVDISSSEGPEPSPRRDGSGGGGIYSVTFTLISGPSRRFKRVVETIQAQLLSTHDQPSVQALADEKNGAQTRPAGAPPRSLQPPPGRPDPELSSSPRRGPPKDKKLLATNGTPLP", "experiment": "Inhibition of BrSK1 (unknown origin) at 1 uM in presence of ATP relative to control; values are per cent of control"}, "BFTC-905": {"test_system": "BFTC-905", "experiment": "Inhibition of cell proliferation in human BFTC-905 cells upto 10 umol/L incubated for 72 hrs by DAPI staining based analysis", "format": "functional", "conditions": "dose <= 10.0 µmol/L"}, "[18]": {"biological_target": "G protein-coupled receptor kinase 6 (Homo sapiens) (UniProt P43250)", "experiment": "Inhibition of GRK6 (unknown origin) at 1 uM in presence of ATP relative to control; values are per cent of control"}, "[19]": {"biological_target": "Insulin-like growth factor 1 receptor (Homo sapiens) (UniProt P08069)", "sequence (P08069 31-736 limits assumed)": "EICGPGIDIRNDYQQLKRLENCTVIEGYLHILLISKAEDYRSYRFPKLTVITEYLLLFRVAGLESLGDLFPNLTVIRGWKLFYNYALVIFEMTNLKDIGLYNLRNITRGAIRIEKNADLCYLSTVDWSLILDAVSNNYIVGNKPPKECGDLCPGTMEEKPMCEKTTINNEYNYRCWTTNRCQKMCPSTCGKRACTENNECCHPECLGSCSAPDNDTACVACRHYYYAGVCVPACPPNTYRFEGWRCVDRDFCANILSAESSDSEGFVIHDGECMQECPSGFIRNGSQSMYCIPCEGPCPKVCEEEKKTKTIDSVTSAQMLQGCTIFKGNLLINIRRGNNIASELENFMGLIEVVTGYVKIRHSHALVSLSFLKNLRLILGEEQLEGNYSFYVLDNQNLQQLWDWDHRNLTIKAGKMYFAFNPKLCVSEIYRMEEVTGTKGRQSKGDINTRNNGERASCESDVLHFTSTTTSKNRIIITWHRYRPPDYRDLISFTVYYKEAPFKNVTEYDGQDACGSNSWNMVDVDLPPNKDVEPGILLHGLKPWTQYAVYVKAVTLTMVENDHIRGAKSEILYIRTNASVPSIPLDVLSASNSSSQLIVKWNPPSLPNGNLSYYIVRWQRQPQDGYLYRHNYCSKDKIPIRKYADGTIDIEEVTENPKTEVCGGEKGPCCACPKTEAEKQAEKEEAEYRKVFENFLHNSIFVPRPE", "sequence (P08069 741-1367 limits assumed)": "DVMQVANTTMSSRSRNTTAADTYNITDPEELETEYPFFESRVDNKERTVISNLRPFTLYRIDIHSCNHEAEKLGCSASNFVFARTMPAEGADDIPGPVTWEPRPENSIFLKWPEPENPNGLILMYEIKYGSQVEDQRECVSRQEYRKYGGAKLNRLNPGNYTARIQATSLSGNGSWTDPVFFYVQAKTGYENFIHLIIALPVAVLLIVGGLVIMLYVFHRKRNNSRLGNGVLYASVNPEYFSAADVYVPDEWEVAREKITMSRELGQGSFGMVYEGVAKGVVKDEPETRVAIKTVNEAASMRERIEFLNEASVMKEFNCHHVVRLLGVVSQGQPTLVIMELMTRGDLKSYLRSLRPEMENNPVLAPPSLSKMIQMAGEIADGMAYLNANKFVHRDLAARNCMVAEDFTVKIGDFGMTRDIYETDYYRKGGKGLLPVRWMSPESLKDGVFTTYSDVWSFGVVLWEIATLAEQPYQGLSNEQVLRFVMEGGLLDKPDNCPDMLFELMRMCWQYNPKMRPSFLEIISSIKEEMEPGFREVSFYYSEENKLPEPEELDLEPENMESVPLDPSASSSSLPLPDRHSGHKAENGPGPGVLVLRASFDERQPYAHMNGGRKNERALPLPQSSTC", "experiment": "Inhibition of Activated IGF-1R (unknown origin) at 1 uM in presence of ATP relative to control; values are per cent of control"}, "[20]": {"biological_target": "Protein kinase C eta type (Homo sapiens) (UniProt P24723)", "experiment": "Inhibition of PKCeta (unknown origin) at 1 uM in presence of ATP relative to control; values are per cent of control"}, "Homo sapiens [21]": {"species": "Homo sapiens", "experiment": "Inhibition of CDK2/cyclinA (unknown origin) at 1 uM in presence of ATP relative to control; values are per cent of control"}, "MZ-CRC-1": {"test_system": "MZ-CRC-1", "experiment": "Inhibition of cell proliferation in human MZ-CRC-1 cells upto 10 umol/L incubated for 72 hrs by DAPI staining based analysis", "format": "functional", "conditions": "dose <= 10.0 µmol/L"}, "BT-474": {"test_system": "BT-474", "experiment": "Inhibition of cell proliferation in human BT-474 cells upto 10 umol/L incubated for 72 hrs by DAPI staining based analysis", "format": "functional", "conditions": "dose <= 10.0 µmol/L"}, "[22]": {"biological_target": "Serine/threonine-protein kinase tousled-like 2 (Homo sapiens) (UniProt Q86UE8)", "experiment": "Inhibition of TLK2 (unknown origin) at 1 uM in presence of ATP relative to control; values are per cent of control"}},
  "note": "Calls of active or inactive are those of the source. No cut-off for these calls is given here.",
  "data": [
    {"smiles": "C[C@@H]1CCc2ncc(F)cc2[C@H]2CCCN2c2ccn3ncc(c3n2)C(=O)N1", "note": "[SELITRECTINIB]", "values": [
      {"measurement": "residual activity", "setting": "[1]", "result": 102, "unit": "%"},
      {"measurement": "residual activity", "setting": "[2]", "result": 107, "unit": "%"},
      {"measurement": "residual activity", "setting": "[3]", "result": 101, "unit": "%"},
      {"measurement": "inhibition", "setting": "SK-BR-3", "result": "inactive"},
      {"measurement": "residual activity", "setting": "[4]", "result": 109, "unit": "%"},
      {"measurement": "residual activity", "setting": "[5]", "result": 95, "unit": "%"},
      {"measurement": "inhibition", "setting": "NIH3T3", "result": "Dose-Dependent Effect"},
      {"measurement": "residual activity", "setting": "[6]", "result": 96, "unit": "%"},
      {"measurement": "inhibition", "setting": "CML-T1", "result": "inactive"},
      {"measurement": "concentration at 36 h", "setting": "[7]", "result": "< 1", "unit": "ng/mL"},
      {"measurement": "residual activity", "setting": "[8]", "result": 115, "unit": "%"},
      {"measurement": "bioavailability", "setting": "[9]", "result": 42, "unit": "%"},
      {"measurement": "residual activity", "setting": "[10]", "result": 124, "unit": "%"},
      {"measurement": "residual activity", "setting": "[11]", "result": 70.5, "unit": "%"},
      {"measurement": "inhibition", "setting": "U138-MG", "result": "inactive"},
      {"measurement": "residual activity", "setting": "[12]", "result": 106, "unit": "%"},
      {"measurement": "residual activity", "setting": "[13]", "result": 90, "unit": "%"},
      {"measurement": "residual activity", "setting": "[14]", "result": 107, "unit": "%"},
      {"measurement": "residual activity", "setting": "Homo sapiens [15]", "result": 108, "unit": "%"},
      {"measurement": "residual activity", "setting": "[16]", "result": 102, "unit": "%"},
      {"measurement": "residual activity", "setting": "[17]", "result": 108, "unit": "%"},
      {"measurement": "inhibition", "setting": "BFTC-905", "result": "inactive"},
      {"measurement": "residual activity", "setting": "[18]", "result": 106, "unit": "%"},
      {"measurement": "residual activity", "setting": "[19]", "result": 84.5, "unit": "%"},
      {"measurement": "residual activity", "setting": "[20]", "result": 108, "unit": "%"},
      {"measurement": "residual activity", "setting": "Homo sapiens [21]", "result": 109, "unit": "%"},
      {"measurement": "inhibition", "setting": "MZ-CRC-1", "result": "inactive"},
      {"measurement": "inhibition", "setting": "BT-474", "result": "inactive"},
      {"measurement": "residual activity", "setting": "[22]", "result": 108, "unit": "%"}
    ]}
  ]
}
